The text below walks through data of patent US11987588B2, “Modulators of the beta-3 adrenergic receptor useful for the treatment or prevention of heart failure and disorders related thereto” (Arena Pharmaceuticals, Inc., priority 2017, dated 2024).

Beta-3 Adrenergic Receptor, sequence (P13945 whole entry, species assumed): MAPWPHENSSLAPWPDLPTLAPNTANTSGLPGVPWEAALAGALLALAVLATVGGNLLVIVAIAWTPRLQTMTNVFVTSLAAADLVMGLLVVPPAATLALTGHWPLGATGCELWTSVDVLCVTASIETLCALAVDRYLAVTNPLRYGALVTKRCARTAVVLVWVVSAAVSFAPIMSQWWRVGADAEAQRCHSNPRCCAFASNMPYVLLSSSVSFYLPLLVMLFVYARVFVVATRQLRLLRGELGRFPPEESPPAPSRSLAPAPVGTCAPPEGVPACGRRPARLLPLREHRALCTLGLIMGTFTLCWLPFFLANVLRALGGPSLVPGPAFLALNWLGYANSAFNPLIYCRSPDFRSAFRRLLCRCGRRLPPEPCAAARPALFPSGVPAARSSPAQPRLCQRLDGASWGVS

The target in this assay is Beta-3 Adrenergic Receptor (Homo sapiens (Human), UniProt P13945). In words: Homogeneous Time-Resolved Fluorescence (HTRF) cAMP antagonist assay, IC50 determination. Type of assay: cell-based. The conditions noted are these: CHO-K1 cells stably expressing recombinant receptor, isoproterenol at EC90. Summed up:
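CHO-K1 cells stably expressing receptor, 1500 cells/well, preincubated briefly with 10-point 5-fold compound series (top final typically 10 or 100 μM) in PBS with 1 mM IBMX, then challenged with isoproterenol at EC90 for 1 h at room temperature. cAMP read by HTRF against on-plate standard curve; IC50 from dose-response.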
A general note: Time-resolved FRET reads energy transfer from a long-lived donor to a nearby acceptor.
Turning to `CNS(=O)(=O)c1cccc(OC[C@@H](O)CNC2COC3(CCN(S(=O)(=O)c4ccc(OC)c(Cl)c4)CC3)C2)c1` (stereo partly drawn) [Compound 207, 3-((2S)-3-(8-(3-chloro-4-methoxyphenylsulfonyl)-1-oxa-8-azaspiro[4.5]decan-3-ylamino)-2-hydroxypropoxy)-N-methylbenzenesulfonamide], the half-maximal inhibitory concentration (IC50) (as a rule, the midpoint of a concentration-inhibition curve) was found to be 8.79 nM.

As for `CNS(=O)(=O)c1cccc(OC[C@@H](O)CNC2COC3(CCN(S(=O)(=O)c4ccc(-c5cc(C(F)(F)F)on5)s4)CC3)C2)c1` (stereo partly drawn) [Compound 208, 3-((2S)-2-hydroxy-3-(8-(5-(5-(trifluoromethyl)isoxazol-3-yl)thiophen-2-ylsulfonyl)-1-oxa-8-azaspiro[4.5]decan-3-ylamino)propoxy)-N-methylbenzenesulfonamide], the 50% inhibitory concentration (IC50) came to 64.6 nM.

With `CCNS(=O)(=O)c1cccc(OC[C@@H](O)CNC2COC3(CCN(S(=O)(=O)c4cccc(-c5cnn(CC)c5)c4)CC3)C2)c1` (stereo partly drawn) [Compound 209, N-ethyl-3-((2S)-3-(8-(3-(1-ethyl-1H-pyrazol-4-yl)phenylsulfonyl)-1-oxa-8-azaspiro[4.5]decan-3-ylamino)-2-hydroxypropoxy)benzenesulfonamide], the IC50 came to 41 nM.

For `CCNS(=O)(=O)c1cccc(OC[C@@H](O)CNC2COC3(CCN(S(=O)(=O)c4cccc(-c5ccc(CN)cc5)c4)CC3)C2)c1` (stereo partly drawn) [Compound 210, 3-((2S)-3-(8-(4′-(aminomethyl)biphenyl-3-ylsulfonyl)-1-oxa-8-azaspiro[4.5]decan-3-ylamino)-2-hydroxypropoxy)-N-ethylbenzenesulfonamide], the IC50 was found to be 20.4 nM.

Regarding `CCNS(=O)(=O)c1cccc(OC[C@@H](O)CNC2COC3(CCN(S(=O)(=O)c4cccc(-c5ccc(S(N)(=O)=O)cc5)c4)CC3)C2)c1` (stereo partly drawn) [Compound 211, 3′-(3-((S)-3-(3-(N-ethylsulfamoyl)phenoxy)-2-hydroxypropylamino)-1-oxa-8-azaspiro[4.5]decan-8-ylsulfonyl)biphenyl-4-sulfonamide], the IC50 came to 16.5 nM.

For `CCNS(=O)(=O)c1cccc(OC[C@@H](O)CNC2COC3(CCN(S(=O)(=O)c4cccc(-c5ccc(N)nc5)c4)CC3)C2)c1` (stereo partly drawn) [Compound 212, 3-((2S)-3-(8-(3-(6-aminopyridin-3-yl)phenylsulfonyl)-1-oxa-8-azaspiro[4.5]decan-3-ylamino)-2-hydroxypropoxy)-N-ethylbenzenesulfonamide], the 50% inhibitory concentration (IC50) came to 13.6 nM.

`CCNS(=O)(=O)c1cccc(OC[C@@H](O)CNC2COC3(CCN(S(=O)(=O)c4cccc(-c5ccc(OCC#N)cc5)c4)CC3)C2)c1` (stereo partly drawn) [Compound 213, 3-((2S)-3-(8-(4′-(cyanomethoxy)biphenyl-3-ylsulfonyl)-1-oxa-8-azaspiro[4.5]decan-3-ylamino)-2-hydroxypropoxy)-N-ethylbenzenesulfonamide]: the IC50 turned out to be 49.1 nM.

`CCNS(=O)(=O)c1cccc(OC[C@@H](O)CNC2COC3(CCN(S(=O)(=O)c4cccc(-c5ccc(CC#N)cc5)c4)CC3)C2)c1` (stereo partly drawn) [Compound 214, 3-((2S)-3-(8-(4′-(cyanomethyl)biphenyl-3-ylsulfonyl)-1-oxa-8-azaspiro[4.5]decan-3-ylamino)-2-hydroxypropoxy)-N-ethylbenzenesulfonamide]: the half-inhibitory concentration (IC50) was 31.4 nM.

Regarding `CNS(=O)(=O)c1cccc(OC[C@@H](O)CN[C@H]2COC3(CCN(S(=O)(=O)c4cccc(-c5cnn(C)c5)c4)CC3)C2)c1` [Compound 215, 3-((S)-2-hydroxy-3-((R)-8-(3-(1-methyl-1H-pyrazol-4-yl)phenylsulfonyl)-1-oxa-8-azaspiro[4.5]decan-3-ylamino)propoxy)-N-methylbenzenesulfonamide], the IC50 amounted to 7.41 nM.

`CNS(=O)(=O)c1cccc(OC[C@@H](O)CN[C@@H]2COC3(CCN(S(=O)(=O)c4cccc(-c5cnn(C)c5)c4)CC3)C2)c1` [Compound 216, 3-((S)-2-hydroxy-3-((S)-8-(3-(1-methyl-1H-pyrazol-4-yl)phenylsulfonyl)-1-oxa-8-azaspiro[4.5]decan-3-ylamino)propoxy)-N-methylbenzenesulfonamide]: the 50% inhibitory concentration (IC50) was 57.7 nM.

In the case of `CNS(=O)(=O)c1cccc(OC[C@@H](O)CNC2COC3(CCN(S(=O)(=O)c4cc(C#N)ccc4C)CC3)C2)c1` (stereo partly drawn) [Compound 217, 3-((2S)-3-(8-(5-cyano-2-methylphenylsulfonyl)-1-oxa-8-azaspiro[4.5]decan-3-ylamino)-2-hydroxypropoxy)-N-methylbenzenesulfonamide], the IC50 was 35.1 nM.

In the case of `CNS(=O)(=O)c1cccc(OC[C@@H](O)CNC2COC3(CCN(S(=O)(=O)c4ccc(C)c(Br)c4)CC3)C2)c1` (stereo partly drawn) [Compound 218, 3-((2S)-3-(8-(3-bromo-4-methylphenylsulfonyl)-1-oxa-8-azaspiro[4.5]decan-3-ylamino)-2-hydroxypropoxy)-N-methylbenzenesulfonamide], the IC50 was 39.3 nM.

As to `CNS(=O)(=O)c1cccc(OC[C@@H](O)CNC2COC3(CCN(S(=O)(=O)c4cc(C)cc(Br)c4)CC3)C2)c1` (stereo partly drawn) [Compound 219, 3-((2S)-3-(8-(3-bromo-5-methylphenylsulfonyl)-1-oxa-8-azaspiro[4.5]decan-3-ylamino)-2-hydroxypropoxy)-N-methylbenzenesulfonamide], the half-inhibitory concentration (IC50) is 25.3 nM.

As to `CNS(=O)(=O)c1cccc(OC[C@@H](O)CNC2COC3(CCN(S(=O)(=O)c4cc(Br)ccc4OC)CC3)C2)c1` (stereo partly drawn) [Compound 220, 3-((2S)-3-(8-(5-bromo-2-methoxyphenylsulfonyl)-1-oxa-8-azaspiro[4.5]decan-3-ylamino)-2-hydroxypropoxy)-N-methylbenzenesulfonamide], the half-maximal inhibitory concentration (IC50) stood at 19.1 nM.

For the compound `CNS(=O)(=O)c1cccc(OC[C@@H](O)CNC2COC3(CCN(S(=O)(=O)c4ccc5c(ccn5C)c4)CC3)C2)c1` (stereo partly drawn) [Compound 221, 3-((2S)-2-hydroxy-3-(8-(1-methyl-1H-indol-5-ylsulfonyl)-1-oxa-8-azaspiro[4.5]decan-3-ylamino)propoxy)-N-methylbenzenesulfonamide], the 50% inhibitory concentration (IC50) turned out to be 9.58 nM.

For `CNS(=O)(=O)c1cccc(OC[C@@H](O)CNC2COC3(CCN(S(=O)(=O)c4ccc(OC)c5c4CCCC5)CC3)C2)c1` (stereo partly drawn) [Compound 222, 3-((2S)-2-hydroxy-3-(8-(4-methoxy-5,6,7,8-tetrahydronaphthalen-1-ylsulfonyl)-1-oxa-8-azaspiro[4.5]decan-3-ylamino)propoxy)-N-methylbenzenesulfonamide], the IC50 is 109 nM.

`CNS(=O)(=O)c1cccc(OC[C@@H](O)CNC2COC3(CCN(S(=O)(=O)c4ccc5c(Cl)cccc5c4)CC3)C2)c1` (stereo partly drawn) [Compound 223, 3-((2S)-3-(8-(5-chloronaphthalen-2-ylsulfonyl)-1-oxa-8-azaspiro[4.5]decan-3-ylamino)-2-hydroxypropoxy)-N-methylbenzenesulfonamide]: the IC50 was 13.6 nM.

As to `CCNS(=O)(=O)c1cccc(OC[C@@H](O)CNC2COC3(CCN(S(=O)(=O)c4cccc(Cl)c4)CC3)C2)c1` (stereo partly drawn) [Compound 224, 3-((2S)-3-(8-(3-chlorophenylsulfonyl)-1-oxa-8-azaspiro[4.5]decan-3-ylamino)-2-hydroxypropoxy)-N-ethylbenzenesulfonamide], the IC50 was 33.1 nM.

On to `CCNS(=O)(=O)c1cccc(OC[C@@H](O)CNC2COC3(CCN(S(=O)(=O)c4ccc(OC)c(C)c4)CC3)C2)c1` (stereo partly drawn) [Compound 225, N-ethyl-3-((2S)-2-hydroxy-3-(8-(4-methoxy-3-methylphenylsulfonyl)-1-oxa-8-azaspiro[4.5]decan-3-ylamino)propoxy)benzenesulfonamide], for which the 50% inhibitory concentration (IC50) was determined as 186 nM.
